{"source": "paper PMC9232501", "about": "“Results of the phase I CCTG IND.231 trial of CX-5461 in patients with advanced solid tumors enriched for DNA-repair deficiencies” (Nature Communications, 2022)", "tested_on": "XPA knockout HAP1 cells", "assay": "HAP1 XPA knockout cytotoxicity (WST-1 assay) with and without UVA", "format": "cell-based", "settings": "for WST-1 raw signal (Figure 5h): replicates", "experimental": "Fig. 5 Comparison of G4 ligand photosensitization. […] Vertical axis, fractional survival, horizontal axis log10 drug concentration (M) (f) Representative images of CPD immunofluorescent staining under UV and drug treatment conditions for U2OS cells, quantified from biological duplicates in (g) (h) Scale bar = 100um. U2OS cells were treated with drug or vehicle control, then immediately irradiated with UVA 125 mJ/cm^2; and fixed 1 h later for immunofluorescence staining with CPD antibody. g Distribution of mean intensity of CPD level per cell (total n = in labels), with two biological repeats per condition. Vertical axis, mean CPD intensity per cell, horizontal axis, conditions (h) WT or KO XPA HAP1 cells assayed for cytotoxicity. Vertical axis, fractional survival (WST-1 assay). The horizontal axis, log10 drug concentration (M). Error bars = standard deviation of the mean. Three biological repeats per condition.\nHuman epidermal keratinocytes (HEKa) cells were sourced from Thermo Fisher Scientific, and were grown in EpiLife™ Medium with HKGS. HAP WT and XPA knockout cell lines (Horizon Discovery) were cultured in IMDM, 10% FCS. Human HCT116 cells, U2OS cells (ATCC) were grown in McCoy’s 5 A medium with 10% FBS and L-glutamine. All cell lines are mycoplasma free and have been authenticated by STR or SNP profiling. CX-5461 was provided by Senhwa Biosciences, Inc. PDS is from Sigma-Aldrich, BRACO-19 from Alfa Chemistry, PhENDC3 is from Sigma-Aldrich, γ -H2AX antibody from Abcam (1:1000 for IF) and CPD antibody (1:1500) from Cosmo Bio Ltd. (Catalog number: CAC-NM-DAD-001). The WST-1 assay was performed as previously described, γ H2AX foci staining was performed as previously described. Immunofluorescence staining of CPD was performed according to the protocol from the manufacturer (Cosmo Bio Ltd).", "note": "Several values for one entry are separate records, joined by “and”; a condition that tells them apart may be missing. Equal values may be shown once."}
{"smiles": "Cc1cnc(CNC(=O)c2c(=O)c3ccc(N4CCCN(C)CC4)nc3n3c2sc2ccccc23)cn1", "note": "[CX-5461]", "values": [{"measurement": "WST-1 raw signal (Figure 5h)", "setting": "conc 1.00E-07, 125 mJ/cm2 XPA", "result": "0.1279 and 0.1288"}, {"measurement": "WST-1 raw signal (Figure 5h)", "setting": "conc 1.00E-07, XPA No UV", "result": "0.1234 and 0.1195"}, {"measurement": "WST-1 raw signal (Figure 5h)", "setting": "conc 1.25E-08, 125 mJ/cm2 XPA", "result": "0.1288 and 0.1302"}, {"measurement": "WST-1 raw signal (Figure 5h)", "setting": "conc 1.25E-08, XPA No UV", "result": "3.2483 and 2.9851"}, {"measurement": "WST-1 raw signal (Figure 5h)", "setting": "conc 1.56E-09, 125 mJ/cm2 XPA", "result": "0.1344 and 0.1335"}, {"measurement": "WST-1 raw signal (Figure 5h)", "setting": "conc 1.56E-09, XPA No UV", "result": "3.436 and 3.4453"}, {"measurement": "WST-1 raw signal (Figure 5h)", "setting": "conc 2.00E-07, 125 mJ/cm2 XPA", "result": "0.0895 and 0.1298"}, {"measurement": "WST-1 raw signal (Figure 5h)", "setting": "conc 2.00E-07, XPA No UV", "result": "0.1255 and 0.1238"}, {"measurement": "WST-1 raw signal (Figure 5h)", "setting": "conc 2.50E-08, 125 mJ/cm2 XPA", "result": "0.1291 and 0.1284"}, {"measurement": "WST-1 raw signal (Figure 5h)", "setting": "conc 2.50E-08, XPA No UV", "result": "0.4389 and 0.6241"}, {"measurement": "WST-1 raw signal (Figure 5h)", "setting": "conc 3.13E-09, 125 mJ/cm2 XPA", "result": "0.128 and 0.1287"}, {"measurement": "WST-1 raw signal (Figure 5h)", "setting": "conc 3.13E-09, XPA No UV", "result": "3.4207 and 3.5618"}, {"measurement": "WST-1 raw signal (Figure 5h)", "setting": "conc 3.91E-10, 125 mJ/cm2 XPA", "result": "2.554 and 2.4891"}, {"measurement": "WST-1 raw signal (Figure 5h)", "setting": "conc 3.91E-10, XPA No UV", "result": "3.4121 and 3.399"}, {"measurement": "WST-1 raw signal (Figure 5h)", "setting": "conc 5.00E-08, 125 mJ/cm2 XPA", "result": "0.1275 and 0.1296"}, {"measurement": "WST-1 raw signal (Figure 5h)", "setting": "conc 5.00E-08, XPA No UV", "result": "0.1252 and 0.1218"}, {"measurement": "WST-1 raw signal (Figure 5h)", "setting": "conc 6.25E-09, 125 mJ/cm2 XPA", "result": "0.1286 and 0.1316"}, {"measurement": "WST-1 raw signal (Figure 5h)", "setting": "conc 6.25E-09, XPA No UV", "result": "3.488 and 3.4015"}, {"measurement": "WST-1 raw signal (Figure 5h)", "setting": "conc 7.81E-10, 125 mJ/cm2 XPA", "result": "0.5854 and 0.7406"}, {"measurement": "WST-1 raw signal (Figure 5h)", "setting": "conc 7.81E-10, XPA No UV", "result": "3.4022 and 3.4603"}, {"measurement": "effect of UVA radiation on cytotoxicity", "setting": "with UVA", "result": "to a greater extent in XPA knockout cells"}]}
